Experimental data taken from ChEMBL document CHEMBL1201862, “PubChem BioAssay data set” (2004).
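Values below derive from 48-hour exposures of cells grown in 96-well plates, with endpoints linearly interpolated between the two concentrations bracketing the appropriate inhibition level. At the GI50, growth is halved.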 Calls of active or inactive are those of the source. Cut-off read from the data, not from the text of the source: active = GI50 up to about 1.1 µM and inactive = higher.

How the values were obtained:
Experiment in all cases: growth of human tumour cells (NCI), 48 h
RXF 393 = system: RXF 393
UACC-257 = system: UACC-257
OVCAR-4 = system: OVCAR-4
HT-29 = system: HT-29
HL-60 = system: HL-60
A549 = system: A549
HCC 2998 = system: HCC 2998
Hs-578T = system: Hs-578T
SK-MEL-28 = system: SK-MEL-28
HOP-92 = system: HOP-92
SK-OV-3 = system: SK-OV-3
PC-3 = system: PC-3
HOP-62 = system: HOP-62
SNB-19 = system: SNB-19
SF-268 = system: SF-268
NCI-H460 = system: NCI-H460
ACHN = system: ACHN
A498 = system: A498

SMILES | GI50 (RXF 393) | GI50 (UACC-257) | GI50 (OVCAR-4) | GI50 (HT-29) | GI50 (HL-60) | GI50 (A549) | GI50 (HCC 2998) | GI50 (Hs-578T) | GI50 (SK-MEL-28) | GI50 (HOP-92) | GI50 (SK-OV-3) | GI50 (PC-3) | GI50 (HOP-62) | GI50 (SNB-19) | GI50 (SF-268) | GI50 (NCI-H460) | GI50 (ACHN) | GI50 (A498)
COc1ccc(C(=O)C(CC2C(=O)CC(C)(C)C(C(=O)C(=O)Nc3c(C)cccc3C)C2=O)c2ccc(OC)cc2)cc1 (stereo not drawn) | > 100 µM (inactive) | > 100 µM (inactive) | > 100 µM (inactive) | > 100 µM (inactive) | 96.6 µM (inactive) | > 100 µM (inactive) | > 100 µM (inactive) | > 100 µM (inactive) | > 100 µM (inactive) | > 100 µM (inactive) | > 100 µM (inactive) | > 100 µM (inactive) | > 100 µM (inactive) | > 100 µM (inactive) | > 100 µM (inactive) | > 100 µM (inactive) | > 100 µM (inactive) | –
O=C1NC(N2CCOCC2)=N/C1=C\c1ccc(Cl)cc1 | > 100 µM (inactive) | > 100 µM (inactive) | > 100 µM (inactive) | > 100 µM (inactive) | > 100 µM (inactive) | > 100 µM (inactive) | > 100 µM (inactive) | > 100 µM (inactive) | > 100 µM (inactive) | > 100 µM (inactive) | > 100 µM (inactive) | > 100 µM (inactive) | > 100 µM (inactive) | > 100 µM (inactive) | > 100 µM (inactive) | – | > 100 µM (inactive) | –
COc1cc(/C=C/C=C2\CCC/C(=C\C=C\c3ccc(O)c(OC)c3)C2=O)ccc1O | 10.8 µM (inactive) | 12.1 µM (inactive) | 6.27 µM (inactive) | 6.04 µM (inactive) | 7.13 µM (inactive) | 4.85 µM (inactive) | 13.2 µM (inactive) | 19.5 µM (inactive) | 12.6 µM (inactive) | 12 µM (inactive) | 5.81 µM (inactive) | 6.58 µM (inactive) | 17.3 µM (inactive) | 31.7 µM (inactive) | 5.53 µM (inactive) | 13.8 µM (inactive) | 4.08 µM (inactive) | –
CN(C)c1ccc(/C=N/NC2=N/C(=C\c3ccco3)C(=O)N2)cc1 | > 100 µM (inactive) | > 100 µM (inactive) | – | > 100 µM (inactive) | > 100 µM (inactive) | > 100 µM (inactive) | – | > 100 µM (inactive) | > 100 µM (inactive) | > 100 µM (inactive) | > 100 µM (inactive) | > 100 µM (inactive) | > 100 µM (inactive) | > 100 µM (inactive) | > 100 µM (inactive) | > 100 µM (inactive) | > 100 µM (inactive) | > 100 µM (inactive)
O=C1NC(=O)C(c2c[nH]c3cc(Br)ccc23)=C1c1cnc[nH]1 | 39 µM (inactive) | 16 µM (inactive) | 32.1 µM (inactive) | 26.2 µM (inactive) | 20.4 µM (inactive) | 53.1 µM (inactive) | – | 52.7 µM (inactive) | 62.1 µM (inactive) | > 100 µM (inactive) | 13.1 µM (inactive) | 24.7 µM (inactive) | 19.1 µM (inactive) | > 100 µM (inactive) | 29.5 µM (inactive) | 24 µM (inactive) | 43.7 µM (inactive) | 14.5 µM (inactive)
NC1=NC(c2ccc(Cl)cc2)N(c2ccc(S(=O)(=O)Nc3ncccn3)cc2)C(N)=N1 (stereo not drawn) | > 100 µM (inactive) | > 100 µM (inactive) | > 100 µM (inactive) | > 100 µM (inactive) | 0.178 µM (active) | > 100 µM (inactive) | – | > 100 µM (inactive) | > 100 µM (inactive) | > 100 µM (inactive) | > 100 µM (inactive) | > 100 µM (inactive) | > 100 µM (inactive) | > 100 µM (inactive) | > 100 µM (inactive) | > 100 µM (inactive) | > 100 µM (inactive) | > 100 µM (inactive)
Cc1oc2c(cc(O)c3ccccc32)c2cccc1-2 | – | > 100 µM (inactive) | – | > 100 µM (inactive) | 96.6 µM (inactive) | > 100 µM (inactive) | > 100 µM (inactive) | > 100 µM (inactive) | > 100 µM (inactive) | > 100 µM (inactive) | > 100 µM (inactive) | > 100 µM (inactive) | > 100 µM (inactive) | > 100 µM (inactive) | > 100 µM (inactive) | > 100 µM (inactive) | > 100 µM (inactive) | > 100 µM (inactive)
Oc1c(CN2CCN(c3ccccc3)CC2)cc(Br)c2cccnc12 | 1.46 µM (inactive) | 2.96 µM (inactive) | 1.7 µM (inactive) | 10.9 µM (inactive) | 0.485 µM (active) | 1.43 µM (inactive) | – | 3.33 µM (inactive) | 3.97 µM (inactive) | 2.2 µM (inactive) | 3.21 µM (inactive) | 4.22 µM (inactive) | 1.33 µM (inactive) | 1.69 µM (inactive) | 0.893 µM (active) | 0.244 µM (active) | 0.621 µM (active) | 7.46 µM (inactive)
